Earlier results as cited in US20120208745A1, “TREATMENT OF HIV” (priority 2006, published 2012).
Read-outs that look alike come from different tables or passages of the source.

Key:
IL-1 = details: whole blood of HIV patients stimulated with LPS; concentration-dependent
TNF-α [1] = details: whole blood of HIV patients stimulated with LPS; concentration-dependent
IL-1β = details: normal PBMC, induced by HIV envelope glycoprotein gp 120
TNF-α [2] = details: normal PBMC, induced by HIV envelope glycoprotein gp 120

Substance | production of IL-1 (IL-1) | production of TNF-α (TNF-α [1]) | production of IL-1β (IL-1β) | production of TNF-α (TNF-α [2])
ACTH (1-24): Melanocortin peptide, fragment 1-24 of adrenocorticotropic hormone (SYSMEHFRWGKPVGKKRRPVKVYP; Corticotropin; UniProt P01189 138-161, looked up, fragment) | reduced | reduced |  | 
adrenocorticotropic hormone [ACTH (1-39)] (SYSMEHFRWGKPVGKKRRPVKVYPNGAEDESAEAFPLEF; Corticotropin; UniProt P01189 138-176, looked up) [Proopiomelanocortin-derived melanocortin peptide] | reduced | reduced |  | 
α-melanocyte-stimulating hormone [α-MSH (1-13), α-melanocyte-stimulating hormone [α-MSH (1-13)]] | reduced | reduced | inhibit | inhibit
